Measured values taken from patent US10369124B2, “Dendrimer compositions and their use in treatment of diseases of the eye” (The Johns Hopkins University, priority 2014, dated 2019).

Key:
[1] = Quantitative biodistribution of D-Cy5 in vital organs by fluorescence spectroscopy (FLS); format: in vivo, BALB/c mice; conditions: IV
Protocol: Biodistribution analysis of D-Cy5 in vital organs. Twelve BALB-C mice weighing ˜25 gr BW were used for this study. Four animals were sacrificed at each time point: 24 hours, 72 hours and 21 days. Each mouse was injected via femoral vein with 600 μg of D-Cy5 in 100 μL of sterile PBS. At respective time point, the animals were euthanized and vital organs (heart, lungs, spleen, kidney, liver and eyes) were harvested immediately and organ wet weights were noted. Organs were snap frozen on dry ice, and stored at −80° C. until analysis. Upon analysis, the tissues were thawed and approximately 100-150 mg of tissue were measured and homogenized with 1 ml of MeOH in low DNA binding tubes (Eppendorf AG, Hamburg, Germany) using stainless steel bead and tissue homogenizer (Tissuelyzer LT, QIAGEN, Hilden, Germany) resulting in a pulpy tissue suspension. The suspension was sonicated for 30 minutes and appropriate volumes containing 100 mg of tissue were placed in different low DNA binding vials and diluted with methanol to 1 ml so that the same amount of tissue and same volume was analyzed for each sample. The samples were centrifuged at 10,000 rpm for 10 minutes at 4° C. resulting in supernatants, which were subjected to fluorescence spectroscopy (FLS).
Quantitative biodistribution of D-Cy5 in vital organs. Quantitative biodistribution in vital organs (liver, kidney, spleen, heart, lungs and serum) and kinetics of D-Cy5 injected intravenously into animals with I/R injury was assessed using FLS (fluorescence spectroscopy) method. For analysis, weight of tissues was measured before being homogenized and D-Cy5 was extracted using methanol as described previously by Lesniak et al. (Molecular pharmaceutics 10 (12), 4560-4571). The D-Cy conjugates were intact stable in human plasma at 37° C. and in vivo, and also the applied methanol extraction protocol yielded best recovery of 96%. The methanol extracts were subjected to fluorescence measurements for emission values using fluorescence spectrophotometer. […]

[2] = tested on: Iba-1+ microglia/macrophages in retina; experiment: Retinal biodistribution of D-Cy5 by immunohistochemistry and confocal microscopy in ischemia/reperfusion (I/R) injury; conditions: mouse, in vivo
Protocol: Animals & Ischemia reperfusion (I/R) injury. All procedures involving the animals conformed to the ARVO Statement for the Use of Animals in Ophthalmic and Vision Research. BALB/c albino mice, each weighing ˜25 grams, housed in Wilmer animal facility at Johns Hopkins were used for transport as well as I/R studies. All surgeries were performed under ketamine (100 mg/Kg) and Xylazine (10 mg/kg) peritoneal anaesthesia. Six mice were used in each group at each time point. I/R injury was performed in the left eye by following the procedure described elsewhere. Briefly, the anterior chamber was cannulated with 30 gauze needle attached to a line infusing saline. The saline system is mounted on to a custom-made saline reservoir and elevated to certain height (calibrated to 90 mm Hg). The IOP was elevated to 90 mm Hg for 90 minutes and I/R injury and shut off of choroidal circulation was evidenced by blanching of the posterior segment via fundus examination through the operating microscope. After ischemia, the needle was immediately withdrawn for immediate blood reperfusion. The right eye had no I/R injury and served as control.
Dendrimer injection and Animal sacrifice. Six days post I/R injury, BALB/c mice were injected with dendrimer either intravitreally or intravenously. […]
Immunohistochemistry and confocal microscopy. […] Sections were analysed on a Zeiss 510 confocal microscope. […]

[3] = tested on: IL-1β, IL-6, MCP-1, TNFα, IL-10; experiment: Retina cytokine levels by ELISA in CNV rat model; format: in vivo, SD rats; conditions: n=8/group
Protocol: (§1) CNV rat model. Male SD rats of ˜300 grams each were chosen for this study. Lipid 3(S)-hydroperoxy-9Z,11E-octadecadienoic acid (HpODE) (Cayman Chemicals, Michigan, USA.) was dissolved in cold borate buffer at a concentration of 500 μg/33 μL. Two μL of lipid was injected sub-retinal on day 1 forming a bleb in retina.
The effect of D-NAC on retinal inflammation was assessed in a blinded manner, by measuring proinflammatory (IL-1β, IL-6, MCP-1, and TNFα) and anti-inflammatory (IL-10) cytokine levels.

[4] = tested on: IL-1β, IL-6, MCP-1, TNFα, IL-10; experiment: Choroid cytokine levels by ELISA in CNV rat model; format: in vivo, SD rats; conditions: n=8 choroids/group
Protocol: FIGS. 16A-16C depict that the choroids from the different groups were analyzed using ELISA (n=8 choroids/group).
as §1
The effect of D-NAC choroidal inflammation was assessed in a blinded manner, by measuring proinflammatory (IL-1β, IL-6, MCP-1-monocyte chemoattractant, and TNFα) and anti-inflammatory cytokine levels (IL-10).

[5] = tested on: choroidal neovascularization (CNV); experiment: CNV area in lipid (HpODE) injected CNV rat model, choroidal flat mounts; format: in vivo, SD rats; conditions: systemic, 20 mg/kg on NAC basis, assessed Day 10
Protocol: CNV rat model. Male SD rats of ˜300 grams each were chosen for this study. Lipid 3(S)-hydroperoxy-9Z,11E-octadecadienoic acid (HpODE) (Cayman Chemicals, Michigan, USA.) was dissolved in cold borate buffer at a concentration of 500 μg/33 μL. Two μL of lipid was injected sub-retinal on day 1 forming a bleb in retina. By day 3 the lipid bleb was gone and retinal degeneration began. At day 7 post-lipid injection, neovascularization from choroid (CNV) begins to form and inflammation occurs in retina and choroid as well as neovascularization in retina (RNV). This model causes damage to both choroid and retina and has characteristics of both dry and wed AMD forms (FIG. 12A).
Effect of N-acetal-Cysteine (NAC) on CNV model. A combination of D-NAC (dendrimer-NAC; 10 mg/kg on a NAC basis) and 6 mg of D-Cy5 were injected intravenously via penile vein on day 3 post lipid injection and animals were sacrificed on day 7 post injection. The animals injected with D-Cy5 and PBS served as controls. […] The confocal images choroids of D-NAC treated and control groups were analyzed for CNV area measurements using Image-J software. […]
D-NAC was administered on Day 3 (two days after lipid administration), and on day 5 and day 7 at 20 mg/kg on a NAC basis. […] CNV areas were assessed using morphometric analysis (yellow delineation) in Image-J software. […] Values were analyzed using Mann-Whitney t-test with n=12 and P<0.001

Compound | accumulation in kidney ([1]; 24 hours) | fluorescent signal in other organs (than kidney) ([1]; 24 hours) | level in any of the organs ([1]; 72 hours) | retinal clearance [2] | retinal clearance ([2]; iv) | proinflammatory cytokines in retina [3] | proinflammatory cytokines in choroid [4] | effect on CNV areas compared to PBS [5]
CCN1/C(=C/C=C/C=C/C2=[N+](CCCCCC(=O)O)c3ccc(S(=O)(=O)O)cc3C2(C)C)C(C)(C)c2cc(S(=O)(=O)[O-])ccc21 [free Cy5] | 0.82±2.93 % of injected dose (ID)/organ | could not detect any fluorescent signals | not detectable | completely cleared | cleared |  |  | 
CC(=O)N[C@@H](CS)C(=O)O [free NAC, N-acetyl cysteine] |  |  |  |  |  | not effective | not effective | some decrease that was not significant
